The text below walks through data of PubChem BioAssay AID248 (DTP/NCI, 2004).

“And” between values parts separate entries of the source, which are not always exact repeats. Equal values may be shown once. Toxic doses and inconclusive results are not listed.

The test system of this test is L1210 leukemia ip in BDF1 mice, survival T/C. Kind of test: NCI In Vivo Anticancer Drug Screen. Data for tumor model L1210 Leukemia (intraperitoneal) in B6D2F1 (BDF1) mice. Particulars: endpoint: mean survival time, higher = longer survival. The procedure, abridged: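 Tumor was transplanted into mice, which were then dosed with test compound or vehicle alone. Survival was recorded for each group, and the treated figure was expressed relative to the control figure.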

The mark [1] stands for this setting: dose: 200.0 mg/kg/injection, schedule: Q01DX001 (ip), vehicle: carboxymethylcellulose (CMC).
The mark [2] stands for this setting: dose: 400.0 mg/kg/injection, schedule: Q01DX001 (ip), vehicle: carboxymethylcellulose (CMC).
The mark [3] stands for this setting: dose: 100.0 mg/kg/injection, schedule: Q04DX003 (ip), vehicle: Klucel (hydroxypropylcellulose) (HPC).
[4] abbreviates: dose: 200.0 mg/kg/injection, schedule: Q04DX003 (ip), vehicle: Klucel (hydroxypropylcellulose) (HPC).
Setting [5] is: dose: 400.0 mg/kg/injection, schedule: Q04DX003 (ip), vehicle: Klucel (hydroxypropylcellulose) (HPC).

For `CC(=O)Nc1ccn(C2OC(COC(C)=O)C(OC(C)=O)C2OC(C)=O)c(=O)n1` (configuration not stated), the T/C reads like this: (dose: 6.3 mg/kg/injection, schedule: Q## X090 (ip), vehicle: carboxymethylcellulose (CMC)) 94 % of control; (dose: 12.5 mg/kg/injection, schedule: Q## X090 (ip), vehicle: carboxymethylcellulose (CMC)) 102 % of control; (dose: 18.0 mg/kg/injection, schedule: Q03HX024 (ip), vehicle: other) 114 % of control; (dose: 25.0 mg/kg/injection, schedule: Q## X090 (ip), vehicle: carboxymethylcellulose (CMC)) 97 % of control; (dose: 50.0 mg/kg/injection, schedule: Q## X090 (ip), vehicle: carboxymethylcellulose (CMC)) 102 % of control; (dose: 53.0 mg/kg/injection, schedule: Q01DX Z (ip), vehicle: carboxymethylcellulose (CMC)) 106 % of control. For the same compound, the T/C (dose: 75.0 mg/kg/injection, schedule: Q03HX024 (ip), vehicle: other) was 168 % of control; the T/C (dose: 79.0 mg/kg/injection, schedule: Q01DX Z (ip), vehicle: carboxymethylcellulose (CMC)) was 107 % of control; the T/C (dose: 119.0 mg/kg/injection, schedule: Q01DX Z (ip), vehicle: carboxymethylcellulose (CMC)) was 109 % of control; the T/C (dose: 125.0 mg/kg/injection, schedule: Q01DX009 (oral), vehicle: carboxymethylcellulose (CMC)) is 115 % of control; the T/C (dose: 125.0 mg/kg/injection, schedule: Q03HX024 (oral), vehicle: carboxymethylcellulose (CMC)) is 111 % of control; the T/C (dose: 125.0 mg/kg/injection, schedule: Q03HX024 (oral), vehicle: water) is 123 % of control. The T/C (dose: 150.0 mg/kg/injection, schedule: Q03HX024 (ip), vehicle: other) is 195 % of control; the T/C (dose: 150.0 mg/kg/injection, schedule: Q04DX003 (ip), vehicle: other) is 108 % of control; the T/C (dose: 178.0 mg/kg/injection, schedule: Q01DX Z (ip), vehicle: carboxymethylcellulose (CMC)) is 119 % of control; the T/C (dose: 178.0 mg/kg/injection, schedule: Q01DX Z (ip), vehicle: saline) is 116 % of control; the T/C under setting [1] was 101 % of control; the T/C (dose: 200.0 mg/kg/injection, schedule: Q01DX010 (oral), vehicle: carboxymethylcellulose (CMC)) is 112 % of control. The T/C was 113 % of control (dose: 250.0 mg/kg/injection, schedule: Q03HX024 (oral), vehicle: carboxymethylcellulose (CMC)); 121 % of control (dose: 250.0 mg/kg/injection, schedule: Q03HX024 (oral), vehicle: water); 228 % of control (dose: 300.0 mg/kg/injection, schedule: Q03HX024 (ip), vehicle: other); 115 % of control (dose: 300.0 mg/kg/injection, schedule: Q04DX003 (ip), vehicle: other); 103 % of control under setting [2]; 163 % of control (dose: 400.0 mg/kg/injection, schedule: Q01DX Z (ip), vehicle: saline). Moreover, the T/C was 124 % of control (dose: 500.0 mg/kg/injection, schedule: Q03HX024 (oral), vehicle: carboxymethylcellulose (CMC)); 177 % of control and 184 % of control (dose: 600.0 mg/kg/injection, schedule: Q01DX009 (ip), vehicle: other); 124 % of control and 246 % of control (dose: 600.0 mg/kg/injection, schedule: Q01DX Z (ip), vehicle: carboxymethylcellulose (CMC)); 166 % of control (dose: 600.0 mg/kg/injection, schedule: Q01DX Z (ip), vehicle: saline); 101 % of control (dose: 800.0 mg/kg/injection, schedule: Q01DX001 (ip), vehicle: carboxymethylcellulose (CMC)); 175 % of control (dose: 900.0 mg/kg/injection, schedule: Q01DX Z (ip), vehicle: carboxymethylcellulose (CMC)). Further, the T/C runs as follows: (dose: 1000.0 mg/kg/injection, schedule: Q03HX024 (oral), vehicle: carboxymethylcellulose (CMC)) 122 % of control; (dose: 1000.0 mg/kg/injection, schedule: Q03HX024 (oral), vehicle: water) 208 % of control; (dose: 1200.0 mg/kg/injection, schedule: Q01DX009 (ip), vehicle: other) 213 % of control and 228 % of control; (dose: 1200.0 mg/kg/injection, schedule: Q04DX003 (ip), vehicle: other) 159 % of control; (dose: 1350.0 mg/kg/injection, schedule: Q01DX Z (ip), vehicle: carboxymethylcellulose (CMC)) 295 % of control; (dose: 1600.0 mg/kg/injection, schedule: Q01DX001 (ip), vehicle: carboxymethylcellulose (CMC)) 124 % of control. The T/C runs as follows: (dose: 1600.0 mg/kg/injection, schedule: Q01DX010 (oral), vehicle: carboxymethylcellulose (CMC)) 214 % of control; (dose: 2000.0 mg/kg/injection, schedule: Q03HX024 (oral), vehicle: water) 226 % of control; (dose: 2400.0 mg/kg/injection, schedule: Q01DX009 (ip), vehicle: other) 112 % of control; (dose: 2400.0 mg/kg/injection, schedule: Q04DX003 (ip), vehicle: other) 214 % of control.

Take `CNc1ncnc2[nH]ncc12`: the T/C is, setting by setting: (dose: 50.0 mg/kg/injection, schedule: Q01DX001 (ip), vehicle: carboxymethylcellulose (CMC)) 94 % of control; (dose: 100.0 mg/kg/injection, schedule: Q01DX001 (ip), vehicle: carboxymethylcellulose (CMC)) 88 % of control; under setting [1], 96 % of control; under setting [2], 103 % of control.

With `CN(C)CC1CC(=O)C(CN(C)C)CC1=O` (configuration not stated), the T/C is, setting by setting: (dose: 5.0 mg/kg/injection, schedule: Q01DX001 (ip), vehicle: saline) 92 % of control; (dose: 10.0 mg/kg/injection, schedule: Q01DX001 (ip), vehicle: saline) 107 % of control; (dose: 20.0 mg/kg/injection, schedule: Q01DX001 (ip), vehicle: saline) 104 % of control; (dose: 40.0 mg/kg/injection, schedule: Q01DX001 (ip), vehicle: saline) 103 % of control.

With `CC(=O)Oc1ccccc1C(C)=O`, the T/C is, setting by setting: (dose: 100.0 mg/kg/injection, schedule: Q01DX009 (ip), vehicle: Klucel (hydroxypropylcellulose) (HPC)) 97 % of control; under setting [3], 96 % of control; (dose: 200.0 mg/kg/injection, schedule: Q01DX009 (ip), vehicle: Klucel (hydroxypropylcellulose) (HPC)) 97 % of control; under setting [4], 98 % of control; under setting [5], 104 % of control.

In the case of `NC(=O)c1n[nH]c(C2OCC(O)C2O)c1I` (configuration not stated), the T/C was 100 % of control (dose: 100.0 mg/kg/injection, schedule: Q01DX005 (ip), vehicle: saline) and 108 % of control (dose: 200.0 mg/kg/injection, schedule: Q01DX005 (ip), vehicle: saline).

As to `CC(C)(C)NC(=O)C1CCCC(C(=O)NC(C)(C)C)C1` (configuration not stated), the T/C reads like this: (dose: 200.0 mg/kg/injection, schedule: Q04DX003 (ip), vehicle: saline) 88 % of control; (dose: 400.0 mg/kg/injection, schedule: Q04DX003 (ip), vehicle: saline) 88 % of control.

As for `COC1N(c2ccccc2)CCN1c1ccccc1`, the T/C (dose: 100.0 mg/kg/injection, schedule: Q04DX002 (ip), vehicle: gum acacia) was 109 % of control; the T/C (dose: 200.0 mg/kg/injection, schedule: Q04DX002 (ip), vehicle: gum acacia) is 106 % of control; the T/C (dose: 400.0 mg/kg/injection, schedule: Q04DX002 (ip), vehicle: gum acacia) was 106 % of control.

Regarding `O=C(Nc1ccc(Cl)c(Cl)c1)Sc1ccc(Cl)cc1`, the T/C is 100 % of control (dose: 25.0 mg/kg/injection, schedule: Q01DX009 (ip), vehicle: saline with Tween-80); 103 % of control (dose: 50.0 mg/kg/injection, schedule: Q01DX009 (ip), vehicle: saline with Tween-80); 101 % of control (dose: 100.0 mg/kg/injection, schedule: Q01DX009 (ip), vehicle: saline with Tween-80).

Consider `C=C1c2c(Cl)cccc2C(C)(CC)c2cccc(Cl)c21`, for which the T/C by setting is: (dose: 75.0 mg/kg/injection, schedule: Q01DX001 (ip), vehicle: Klucel (hydroxypropylcellulose) (HPC)) 96 % of control; (dose: 75.0 mg/kg/injection, schedule: Q01DX009 (ip), vehicle: Klucel (hydroxypropylcellulose) (HPC)) 94 % of control; (dose: 150.0 mg/kg/injection, schedule: Q01DX001 (ip), vehicle: Klucel (hydroxypropylcellulose) (HPC)) 98 % of control; (dose: 150.0 mg/kg/injection, schedule: Q01DX009 (ip), vehicle: Klucel (hydroxypropylcellulose) (HPC)) 96 % of control; (dose: 300.0 mg/kg/injection, schedule: Q01DX001 (ip), vehicle: Klucel (hydroxypropylcellulose) (HPC)) 95 % of control; (dose: 300.0 mg/kg/injection, schedule: Q01DX009 (ip), vehicle: Klucel (hydroxypropylcellulose) (HPC)) 99 % of control.

For `CCCCNC(=O)CC#N`, the T/C runs as follows: under setting [3], 104 % of control; under setting [4], 107 % of control; under setting [5], 107 % of control.
